Results published in patent US20230117034A1, “PYRAZOLOTRIAZINES” (Bayer Aktiengesellschaft, priority 2019, published 2023).
pIC50: −log10 of the molar value.

What was measured:
CDK2/CycE = biological target: T1, CDK2/CycE (Homo sapiens, UniProt P24941); assay: CDK2/CycE kinase assay (TR-FRET, 2 mM ATP); type: biochemical; conditions: 2 mM ATP (high ATP); median; read-out: CDK2/CyclinE, 2 mM ATP (high ATP), IC50 (median)
T1 construct: purchased ProQinase GmbH (Freiburg, Germany); host or cells: insect cells (Sf9)
How it was run: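 GST-tagged human CDK2 and CycE from Sf9 cells, about 10 ng/ml, pre-incubated 15 min at 22 °C with compound in Tris/HCl pH 8.0 buffer. Reaction with 2 mM ATP and 0.75 µM biotinylated peptide for 25 min at 22 °C. Phospho-RB antibody TR-FRET (665/620 nm ratio) read after 1 h; data normalised to no-inhibitor and no-enzyme controls.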

CDK12/CycK = CDK12/CycK (Homo sapiens, UniProt Q9NYV4); assay: CDK12/CycK high ATP kinase assay (TR-FRET, 2 mM ATP); type: biochemical; conditions: 2 mM ATP (high ATP); median; read-out: CDK12/CyclinK, 2 mM ATP (high ATP), IC50-[mol/l] (median)
CDK12/CycK, sequence (Q9NYV4 with tags, fused parts or gaps): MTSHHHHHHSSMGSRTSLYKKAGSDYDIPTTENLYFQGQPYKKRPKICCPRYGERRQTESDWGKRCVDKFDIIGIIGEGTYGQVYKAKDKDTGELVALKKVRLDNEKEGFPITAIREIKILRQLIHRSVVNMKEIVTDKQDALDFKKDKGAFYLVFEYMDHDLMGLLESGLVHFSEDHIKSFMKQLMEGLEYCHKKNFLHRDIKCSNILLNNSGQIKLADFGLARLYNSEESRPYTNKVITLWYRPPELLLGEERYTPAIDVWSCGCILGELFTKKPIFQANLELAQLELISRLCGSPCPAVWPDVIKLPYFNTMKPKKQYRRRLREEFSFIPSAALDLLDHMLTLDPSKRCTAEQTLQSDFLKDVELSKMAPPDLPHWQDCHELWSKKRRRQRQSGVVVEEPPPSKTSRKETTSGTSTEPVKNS
CDK12/CycK, sequence (O75909 1-300 partner limits assumed): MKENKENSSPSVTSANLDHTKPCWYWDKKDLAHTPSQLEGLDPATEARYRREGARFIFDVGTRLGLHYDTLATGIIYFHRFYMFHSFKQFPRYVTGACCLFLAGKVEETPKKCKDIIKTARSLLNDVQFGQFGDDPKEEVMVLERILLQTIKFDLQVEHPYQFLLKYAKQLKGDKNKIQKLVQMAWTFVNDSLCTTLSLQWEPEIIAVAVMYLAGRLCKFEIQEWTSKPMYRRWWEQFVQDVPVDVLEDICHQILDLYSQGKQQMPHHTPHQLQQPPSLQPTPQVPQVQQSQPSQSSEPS
How it was run: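 His-tagged human CDK12/CycK (~0.75 nM) pre-incubated 15 min with compound, then 60 min at 22 °C with 2 mM ATP and 1 µM biotinylated peptide (HEPES pH 7.5, 20 mM MgCl2). EDTA stop; phospho-Ser62 antibody/Eu anti-rabbit and streptavidin-XL665 TR-FRET, 665/620 nm ratio normalised to give IC50.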

With `Cc1cnn2c(NCc3nc4ccccc4[nH]3)nc(N3CCN(C)CC3)nc12` [Example 396, N-[(1H-benzimidazol-2-yl)methyl]-8-methyl-2-(4-methylpiperazin-1-yl)pyrazolo[1,5-a][1,3,5]triazin-4-amine] the pIC50 (CDK2/CycE) was 4.86 and the pIC50 (CDK12/CycK) was less than 4.70.
With `Brc1cnn2c(NCc3nc4ccccc4[nH]3)nc(OCC3CC3)nc12` [Example 408, N-[(1H-benzimidazol-2-yl)methyl]-8-bromo-2-(cyclopropylmethoxy)pyrazolo[1,5-a][1,3,5]triazin-4-amine] the pIC50 (CDK2/CycE) was less than 4.71 and the pIC50 (CDK12/CycK) was less than 4.70.
With `CCNc1nc(NCc2nnc(-c3ccccc3)[nH]2)n2ncc(C(C)C)c2n1` [Example 38, N^2-ethyl-N^4-[(5-phenyl-4H-1,2,4-triazol-3-yl)methyl]-8-(propan-2-yl)pyrazolo[1,5-a][1,3,5]triazine-2,4-diamine] the pIC50 (CDK2/CycE) was 5.08 and the pIC50 (CDK12/CycK) was less than 5.24.
With `N#Cc1cccc(-c2c[nH]c(CNc3nc(N4CCOCC4)nc4c(Br)cnn34)n2)c1` [Example 42, 3-[2-({[8-bromo-2-(morpholin-4-yl)pyrazolo[1,5-a][1,3,5]triazin-4-yl]amino}methyl)-1H-imidazol-4-yl]benzonitrile] the pIC50 (CDK2/CycE) was 5.99 and the pIC50 (CDK12/CycK) was 6.39.
In the case of `N#Cc1cccc(-c2nnc(CNc3nc(N4CCOCC4)nc4c(Br)cnn34)[nH]2)c1` [Example 55, 3-[5-({[8-bromo-2-(morpholin-4-yl)pyrazolo[1,5-a][1,3,5]triazin-4-yl]amino}methyl)-4H-1,2,4-triazol-3-yl]benzonitrile], the pIC50 (CDK2/CycE) was 5.97 and the pIC50 (CDK12/CycK) was 6.11.
For `Brc1cnn2c(NCc3nc4ccccc4[nH]3)nc(OC3CCOCC3)nc12` [Example 405, N-[(1H-benzimidazol-2-yl)methyl]-8-bromo-2-[(oxan-4-yl)oxy]pyrazolo[1,5-a][1,3,5]triazin-4-amine], the pIC50 (CDK2/CycE) was less than 4.70 and the pIC50 (CDK12/CycK) was less than 4.70.
With `CC(C)c1cnn2c(NCc3nnc(-c4ccccc4)[nH]3)nc(N(C)CC(C)(C)O)nc12` [Example 39, 2-methyl-1-{methyl[4-{[(5-phenyl-4H-1,2,4-triazol-3-yl)methyl]amino}-8-(propan-2-yl)pyrazolo[1,5-a][1,3,5]triazin-2-yl]amino}propan-2-ol] the pIC50 (CDK2/CycE) was 5.68 and the pIC50 (CDK12/CycK) was 5.33.
Work on `COc1cccc2[nH]c(CNc3nc(N4CCOCC4)nc4c(-c5nccs5)cnn34)nc12` [Example 414, N-[(4-methoxy-1H-benzimidazol-2-yl)methyl]-2-(morpholin-4-yl)-8-(1,3-thiazol-2-yl)pyrazolo [1,5-a][1,3,5]triazin-4-amine] yielded a pIC50 (CDK2/CycE) of less than 4.70 and a pIC50 (CDK12/CycK) of less than 5.24.
For `CN1CCN(c2nc(NCc3nc4ccccc4[nH]3)n3ncc(C4CC4(F)F)c3n2)CC1` (centres unmarked) [Example 428, N-(1H-benzimidazol-2-ylmethyl)-8-(2,2-difluorocyclopropyl)-2-(4-methylpiperazin-1-yl)pyrazolo[1,5-a][1,3,5]triazin-4-amine], the pIC50 (CDK2/CycE) was less than 4.70 and the pIC50 (CDK12/CycK) was less than 4.70.
With `FC(F)(F)c1cccc(-c2nnc(CNc3nc(N4CCOCC4)nc4c(Br)cnn34)[nH]2)c1` [Example 52, 8-bromo-2-(morpholin-4-yl)-N-({5-[3-(trifluoromethyl)phenyl]-4H-1,2,4-triazol-3-yl}methyl)pyrazolo[1,5-a][1,3,5]triazin-4-amine] the pIC50 (CDK2/CycE) was 5.58 and the pIC50 (CDK12/CycK) was 5.79.
In the case of `N#Cc1cnn2c(NCc3nc4ccccc4[nH]3)nc(N3CCOCC3)nc12` [Example 43, 4-{[(1H-benzimidazol-2-yl)methyl]amino}-2-(morpholin-4-yl)pyrazolo[1,5-a][1,3,5]triazine-8-carbonitrile], the pIC50 (CDK2/CycE) was less than 4.70 and the pIC50 (CDK12/CycK) was less than 4.77.
For `CN1CCN(c2nc(NCc3nc4ccccc4[nH]3)n3ncc(CC(F)(F)F)c3n2)CC1` [Example 436, N-[(1H-benzimidazol-2-yl)methyl]-2-(4-methylpiperazin-1-yl)-8-(2,2,2-trifluoroethyl)pyrazolo [1,5-a][1,3,5]triazin-4-amine], the pIC50 (CDK2/CycE) was less than 4.70 and the pIC50 (CDK12/CycK) was less than 4.70.
`Cc1cnn2c(NCc3nc4c(F)c(F)ccc4[nH]3)nc(N(C)CC(C)(C)O)nc12` [Example 395, 1-[(4-{[(4,5-difluoro-1H-benzimidazol-2-yl)methyl]amino}-8-methylpyrazolo[1,5-a][1,3,5]triazin-2-yl)(methyl)amino]-2-methylpropan-2-ol] gave a pIC50 (CDK2/CycE) of less than 4.70 and a pIC50 (CDK12/CycK) of 5.19.
`CC(C)COc1nc(NCc2nc3ccccc3[nH]2)n2ncc(Br)c2n1` [Example 409, N-[(1H-benzimidazol-2-yl)methyl]-8-bromo-2-(2-methylpropoxy)pyrazolo[1,5-a][1,3,5]triazin-4-amine] showed a pIC50 (CDK2/CycE) of 4.89 and a pIC50 (CDK12/CycK) of less than 4.80.
`C[C@@H]1COCCN1c1nc(NCc2nc3ccccc3[nH]2)n2ncc(Br)c2n1` [Example 56, N-[(1H-benzimidazol-2-yl)methyl]-8-bromo-2-[(3R)-3-methylmorpholin-4-yl]pyrazolo[1,5-a][1,3,5]triazin-4-amine] was tested, and the pIC50 (CDK2/CycE) was 5.69 and the pIC50 (CDK12/CycK) was 5.27.
`Cc1cnn2c(NCc3nc4ccccc4[nH]3)nc(N3CC4CCC(C3)N4)nc12` [Example 401, N-[(1H-benzimidazol-2-yl)methyl]-2-(3,8-diazabicyclo[3.2.1]octan-3-yl)-8-methylpyrazolo[1,5-a][1,3,5]triazin-4-amine] gave a pIC50 (CDK2/CycE) of less than 4.70 and a pIC50 (CDK12/CycK) of less than 4.70.
For `Brc1cnn2c(NCc3nc4ccccc4[nH]3)nc(N3CCCCC3)nc12` [Example 46, N-[(1H-benzimidazol-2-yl)methyl]-8-bromo-2-(piperidin-1-yl)pyrazolo[1,5-a][1,3,5]triazin-4-amine], the pIC50 (CDK2/CycE) was 5.73 and the pIC50 (CDK12/CycK) was 5.48.
Work on `Brc1cnn2c(NCc3nc4ccccc4[nH]3)nc(N3CCCC3)nc12` [Example 47, N-[(1H-benzimidazol-2-yl)methyl]-8-bromo-2-(pyrrolidin-1-yl)pyrazolo[1,5-a][1,3,5]triazin-4-amine] yielded a pIC50 (CDK2/CycE) of 5.33 and a pIC50 (CDK12/CycK) of 5.14.
Compound `Clc1ccc(-c2nnc(CNc3nc(N4CCOCC4)nc4c(Br)cnn34)[nH]2)cc1` [Example 45, 8-bromo-N-{[5-(4-chlorophenyl)-4H-1,2,4-triazol-3-yl]methyl}-2-(morpholin-4-yl)pyrazolo[1,5-a][1,3,5]triazin-4-amine] has a pIC50 (CDK2/CycE) of 5.27 and a pIC50 (CDK12/CycK) of 5.66.
`FC(F)Cc1cnn2c(NCc3nc4ccccc4[nH]3)nc(N3CCOCC3)nc12.O=C(O)C(F)(F)F` [Example 444, trifluoroacetic acid N-[(1H-benzimidazol-2-yl)methyl]-8-(2,2-difluoroethyl)-2-(morpholin-4-yl)pyrazolo[1,5-a][1,3,5]triazin-4-amine] was tested, and the pIC50 (CDK2/CycE) was 4.81 and the pIC50 (CDK12/CycK) was 5.07.
In the case of `Cc1cnn2c(NCc3nc4c(F)c(F)ccc4[nH]3)nc(N3CC4CCC(C3)N4)nc12` [Example 400, 2-(3,8-diazabicyclo[3.2.1]octan-3-yl)-N-[(4,5-difluoro-1H-benzimidazol-2-yl)methyl]-8-methylpyrazolo[1,5-a][1,3,5]triazin-4-amine], the pIC50 (CDK2/CycE) was less than 4.70 and the pIC50 (CDK12/CycK) was less than 4.78.
`CN1CCN(c2nc(NCc3nc4c(F)c(F)ccc4[nH]3)n3ncc(C4CC4(F)F)c3n2)CC1` (centres unmarked) [Example 429, N-[(4,5-difluoro-1H-benzimidazol-2-yl)methyl]-8-(2,2-difluorocyclopropyl)-2-(4-methylpiperazin-1-yl)pyrazolo[1,5-a][1,3,5]triazin-4-amine] gave a pIC50 (CDK2/CycE) of less than 4.70 and a pIC50 (CDK12/CycK) of less than 4.70.
